Laboratory results taken from patent US20040224939A1, “Antibacterial agents” (priority 2003, published 2004).
≈ marks a conversion by molar mass, not a printed value.

Assays:
[1] = tested on: E. coli Tol C; assay: Antibacterial assay (Test A), standard microtitration MIC, Gram negative; type: cell-based; conditions: for MIC: Escherichia coli, read-out: Minimum Inhibitory Concentrations, E. coli Tol C
Description: (§1) Test A—Antibacterial Assays
(§2) The compounds of the present invention were tested against an assortment of Gram-negative and Gram-positive organisms using standard microtitration techniques (Cohen et. al., Antimicrob., 1985;28:766; Heifetz, et. al., Antimicrob., 1974;6:124).

[2] = tested on: H. influenzae H13542; assay: as above; type: cell-based; conditions: Gram Negative Bacteria, strain H13542; for MIC: Haemophilus influenzae, read-out: Minimum Inhibitory Concentrations, H. influenzae H13542
Description: as §1, §2

[3] = tested on: M. catarrhalis BC3534; assay: as above; type: cell-based; conditions: Gram Negative Bacteria, strain BC3534; for MIC: Moraxella catarrhalis, read-out: Minimum Inhibitory Concentrations, M. catarrhalis BC3534
Description: as §1, §2

[4] = tested on: E. faecalis MGH-2; assay: Antibacterial assay (Test A), standard microtitration MIC, Gram positive; type: cell-based; conditions: Gram Positive Bacteria, strain MGH-2; for MIC: Enterococcus faecalis, MGH2, read-out: Minimum Inhibitory Concentrations, E. faecalis MGH-2
Description: as §1, §2

[5] = tested on: S pyogenes C203; assay: as above; type: cell-based; conditions: Gram Positive Bacteria, strain C203; for MIC: read-out: Minimum Inhibitory Concentrations, S pyogenes C203
Description: as §1, §2

[6] = tested on: S. aureus UC-76; assay: as above; type: cell-based; conditions: Gram Positive Bacteria, strain UC-76; for MIC: Staphylococcus aureus, UC76, read-out: Minimum Inhibitory Concentrations, S. aureus UC-76
Description: as §1, §2

[7] = tested on: E. coli transcription and translation (TnT), E. coli S30 fraction; assay: E. coli transcription and translation (TnT) assay, cell free, luciferase luminescence;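 further: printed under a heading of minimum inhibitory concentration in µg/mL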; type: biochemical; conditions: cell free E. coli S30, firefly luciferase plasmid pBESTluc, 20 minutes at room temperature

| Molecule | MIC [1] | MIC [2] | MIC [3] | MIC [4] | MIC [5] | MIC [6] | Inhibitory concentration in E. coli cell-free transcription/translation assay [7] | Minimum Inhibitory Concentrations, E. coli Tol C ([1]; Gram Negative Bacteria, strain Tol C) | Minimum Inhibitory Concentrations, H. influenzae H13542 [2] | Minimum Inhibitory Concentrations, M. catarrhalis BC3534 [3] | Minimum Inhibitory Concentrations, E. faecalis MGH-2 [4] | Minimum Inhibitory Concentrations, S pyogenes C203 [5] | Minimum Inhibitory Concentrations, S. aureus UC-76 [6] |
| --- | --- | --- | --- | --- | --- | --- | --- | --- | --- | --- | --- | --- | --- |
| CC(=O)NC[C@H]1CN(c2ccc3c(c2)C=CCCC3)C(=O)O1 | > 64 µg/mL | > 64 µg/mL | 32 µg/mL (≈ 107 µM) | 4 µg/mL (≈ 13.3 µM) | 2 µg/mL (≈ 6.66 µM) | 4 µg/mL (≈ 13.3 µM) |  |  |  |  |  |  |  |
| CC(=O)NC[C@H]1CN(c2ccc3c(c2)CCN(C(=O)Cc2cccs2)CC3)C(=O)O1 | > 64 µg/mL | > 64 µg/mL | 16 µg/mL (≈ 37.4 µM) | 0.25 µg/mL (≈ 0.585 µM) | 0.125 µg/mL (≈ 0.292 µM) | 0.25 µg/mL (≈ 0.585 µM) | 2.3 µg/mL |  |  |  |  |  |  |
| CC(=O)NC[C@H]1CN(c2ccc3c(c2)CCCC(Cc2ccsc2)C3=O)C(=O)O1 (stereo partly shown) | > 64 µg/mL | 2 µg/mL (≈ 4.85 µM) | 1 µg/mL (≈ 2.42 µM) | 0.5 µg/mL (≈ 1.21 µM) | 0.25 µg/mL (≈ 0.606 µM) | 0.25 µg/mL (≈ 0.606 µM) | 0.84 µg/mL |  |  |  |  |  |  |
| COC(=O)C1CCCc2cc(N3C[C@H](CNC(C)=O)OC3=O)ccc2C1=O (stereo partly shown) | > 64 µg/mL | 32 µg/mL (≈ 85.5 µM) | 16 µg/mL (≈ 42.7 µM) | 2 µg/mL (≈ 5.34 µM) | 4 µg/mL (≈ 10.7 µM) | 4 µg/mL (≈ 10.7 µM) | 4.7 µg/mL |  |  |  |  |  |  |
| CC(=O)NCC1CN(c2ccc3c(c2)CCCCC3=O)C(=O)O1 (stereo not shown) [Example 2, N-[2-Oxo-3-(5-oxo-6,7,8,9-tetrahydro-5H-benzocyclohepten-2-yl)-oxazolidin-5-ylmethyl]-acetamide] | > 64 µg/mL | 8 µg/mL (≈ 25.3 µM) | 4 µg/mL (≈ 12.6 µM) | > 64 µg/mL | > 64 µg/mL | > 64 µg/mL | 3.9 µg/mL |  |  |  |  |  |  |
| CC(=O)NCC1CN(c2ccc3c(c2)CCC(=O)CC3)C(=O)O1 (stereo not shown) [Example 4, N-[2-Oxo-3-(7-oxo-6,7,8,9-tetrahydro-5H-benzocyclohepten-2-yl)-oxazolidin-5-ylmethyl]-acetamide] | > 64 µg/mL | 64 µg/mL (≈ 202 µM) | 32 µg/mL (≈ 101 µM) | 8 µg/mL (≈ 25.3 µM) | 4 µg/mL (≈ 12.6 µM) | 4 µg/mL (≈ 12.6 µM) | 8.2 µg/mL |  |  |  |  |  |  |
| CC(=O)NCC1CN(c2ccc3c(c2)CC(=O)CCC3)C(=O)O1 (stereo not shown) [Example 5, N-[2-Oxo-3-(8-oxo-6,7,8,9-tetrahydro-5H-benzocyclohepten-2-yl)-oxazolidin-5-ylmethyl]-acetamide] | > 64 µg/mL | 64 µg/mL (≈ 202 µM) | 64 µg/mL (≈ 202 µM) | 16 µg/mL (≈ 50.6 µM) | 8 µg/mL (≈ 25.3 µM) | 8 µg/mL (≈ 25.3 µM) | 2.3 µg/mL |  |  |  |  |  |  |
| CC(=O)NCC1CN(c2ccc3c(c2)C=CCCC3)C(=O)O1 (stereo not shown) [Example 6, N-[3-(6,7-dihydro-5H-benzocyclohepten-2-yl)-2-oxo-oxazolidin-5-ylmethyl]acetamide] | > 64 µg/mL | > 64 µg/mL | 32 µg/mL (≈ 107 µM) | 4 µg/mL (≈ 13.3 µM) | 2 µg/mL (≈ 6.66 µM) | 4 µg/mL (≈ 13.3 µM) | 15 µg/mL |  |  |  |  |  |  |
| CC(=O)NCC1CN(c2ccc3c(c2)CCCC(=O)C3)C(=O)O1 (stereo not shown) [Example 7, N-[2-Oxo-3-(6-oxo-6,7,8,9-tetrahydro-5H-benzocyclohepten-2-yl)-oxazolidin-5-ylmethyl]-acetamide] | > 64 µg/mL | 32 µg/mL (≈ 101 µM) | 32 µg/mL (≈ 101 µM) | 4 µg/mL (≈ 12.6 µM) | 2 µg/mL (≈ 6.32 µM) | 4 µg/mL (≈ 12.6 µM) | 12 µg/mL |  |  |  |  |  |  |
| CC(=O)NCC1CN(c2ccc3c(c2)OCCCC3=O)C(=O)O1 (stereo not shown) [Example 12, N-[2-Oxo-3-(5-oxo-2,3,4,5-tetrahydro-benzo[b]oxepin-8-yl)-oxazolidin-5-ylmethyl]-acetamide] | > 64 µg/mL | 32 µg/mL (≈ 101 µM) | 16 µg/mL (≈ 50.3 µM) | 4 µg/mL (≈ 12.6 µM) | 2 µg/mL (≈ 6.28 µM) | 8 µg/mL (≈ 25.1 µM) | 1.1 µg/mL |  |  |  |  |  |  |
| CC(=O)NCC1CN(c2ccc3c(c2)CCCCN3)C(=O)O1 (stereo not shown) [Example 14, N-[2-Oxo-3-(2,3,4,5-tetrahydro-1H-benzo[b]azepin-7-yl)-oxazolidin-5-ylmethyl]-acetamide] | > 64 µg/mL | 64 µg/mL (≈ 211 µM) | > 64 µg/mL | 64 µg/mL (≈ 211 µM) | 16 µg/mL (≈ 52.7 µM) | 32 µg/mL (≈ 105 µM) |  |  |  |  |  |  |  |
| CC(=O)NC[C@H]1CN(c2ccc3c(c2)CCCCC3)C(=O)O1 [drawing 69] | > 64 µg/mL | > 64 µg/mL | 16 µg/mL (≈ 52.9 µM) | 4 µg/mL (≈ 13.2 µM) | 2 µg/mL (≈ 6.61 µM) | 2 µg/mL (≈ 6.61 µM) |  |  |  |  |  |  |  |
| CC(=O)NC[C@H]1CN(c2ccc3c(c2)CCCCC3)C(=O)O1 [drawing 70] |  |  |  |  |  |  | 6.6 µg/mL |  |  |  |  |  |  |
| CC(=O)NC[C@H]1CN(c2ccc3c(c2)CCC/C(=C\c2ccc(F)cc2)C3=O)C(=O)O1 [drawing 72] | > 64 µg/mL | 2 µg/mL (≈ 4.73 µM) | 1 µg/mL (≈ 2.37 µM) |  |  |  | 1.4 µg/mL |  |  |  |  |  |  |
| CC(=O)NC[C@H]1CN(c2ccc3c(c2)CCC/C(=C\c2ccncc2)C3=O)C(=O)O1 [drawing 72] |  |  |  | 1 µg/mL (≈ 2.47 µM) | 1 µg/mL (≈ 2.47 µM) | 1 µg/mL (≈ 2.47 µM) |  |  |  |  |  |  |  |
| CC(=O)NC[C@H]1CN(c2ccc3c(c2)CCC/C(=C\c2ccc(F)cc2)C3=O)C(=O)O1 [drawing 73] |  |  |  | 0.5 µg/mL (≈ 1.18 µM) | 0.5 µg/mL (≈ 1.18 µM) | 0.5 µg/mL (≈ 1.18 µM) |  |  |  |  |  |  |  |
| CC(=O)NC[C@H]1CN(c2ccc3c(c2)CCC/C(=C\c2ccncc2)C3=O)C(=O)O1 [drawing 73] | > 64 µg/mL | 16 µg/mL (≈ 39.5 µM) | 8 µg/mL (≈ 19.7 µM) |  |  |  | 2.7 µg/mL |  |  |  |  |  |  |
| N-[2-Oxo-3-(2,3,4,5-tetrahydro-1H-benzo [c] azepin-7-yl)-oxazolidin-5-ylmethyl]-acetamide and N-[2-Oxo-3-(2,3,4,5-tetrahydro-1H-benzo[d]azepin-7-yl)-oxazolidin-5-ylmethyl]-acetamide [Example 15] |  |  |  |  |  |  | 11 µg/mL | >64 µg/mL | >64 µg/mL | >64 µg/mL | 64 µg/mL | 64 µg/mL | 64 µg/mL |
